Values joined by “and” are separate entries in the source; they are usually repeats but may differ in a detail not shown here. Equal entries are not always repeated. “Also recorded” adds a separate entry of the source. Where two headings read alike, the source gives them in different places.

Data on four molecules can be found in patent publication US20230151302A1, “Cationic surfactants, in particular ethyl lauroyl arginate LAE, for treating or preventing infections and contaminations with Coronavirus” (priority 2020, published 2023).

Data set [1] concerns SARS-CoV-2. To be noted: cited from earlier work.
Data set [2] deals with Adenovirus type 5 (ATCC VR-5). In kind it is cell-based.
Data set [3] relates to Poliovirus type 1 (ATCC VR-192). In kind it is cell-based.
Data set [4] deals with murine Norovirus (cepa S99 Berlin). In kind it is cell-based.
Data set [5] relates to MRC-5, ref. FTMR cells.
Data set [6] relates to Vero, ref. FTVE cells.
Data set [7] deals with Coronavirus 229E (ATCC VR-740). In kind it is cell-based, human Coronavirus 229E.
In data set [8] the test system is Herpes simplex virus type 1. The settings on record: 200 ppm in water, after 5 and 60 minutes; monohydrochloride; cited from earlier work.
Data set [9] concerns Vaccinia virus (Orthopoxvirus). The settings on record: monohydrochloride; cited from earlier work.
For data set [10] the following is noted: in vivo; cited from earlier work.
Data set [11] relates to Bovine Parainfluenza 3 virus (ATCC VR-281). The settings on record: 200 ppm in water, after 5 and 60 minutes; monohydrochloride; cited from earlier work.
The conditions of data set [12]: rats; cited from earlier work.

On to `[H]/N=C(\N/C(=N/[H])NCCCCCCNC(=N)NC(=N)Nc1ccc(Cl)cc1)Nc1ccc(Cl)cc1` [chlorhexidine], for which the “reduction in viral titres” value in data set [1] is given as less than 2 log fold.

On to `CCO` [ethanol], for which the “effect on virus infectivity” value in [1] (ethanol alone at <23%) is listed as “no effect”.

Consider `C=O` [Formaldehyde, formaldehyde, reference compound], for which the figures for the “log10 TCID50 after 30 min” value in data set [2], in [3] and in data set [4] were 2.58 log10 TCID50, 5.00 log10 TCID50 and 3.16 log10 TCID50, respectively. Moreover, the results for the “log10 TCID50 after 60 min” value in data set [2], in data set [3] and in data set [4] were 1.33 log10 TCID50, 3.07 log10 TCID50 and 1.74 log10 TCID50, respectively. Besides, the Level of cytotoxicity in data set [5] (human) and in data set [6] (African green monkey) was 0.5 in each case. Further, the “log10 TCID50 after 5 min” value in data set [7] came to 3.58 log10 TCID50. In addition, in data set [7], the “log10 TCID50 after 15 min” value is recorded as 2.49 log10 TCID50.

For “L-arginine, N^α-lauroyl-ethyl ester monohydrochloride [LAE®]”, the “effectiveness against the virus” value is recorded as “not effective” in [3] and “effective” in data set [7]. Moreover, the “viricidal activity (reduction ≥4 log10)” value was “has no viricidal activity” in [3] and “has viricidal activity” in data set [7]. Also, in [3] (monohydrochloride), the “Reduction with 95% confidence interval after 30 minutes” value is 2.33±0.53 and 1.82±0.52 and 1.49±0.46 and 1.82 ± 0.52 log10 and 1.49 ± 0.46 log10 and 2.33 ± 0.53 log10. Besides, the “antiviral activity, remaining virus (TCID50)” value in data set [8], in data set [9] and in [11] was “No remaining virus was detected; also recorded: effective” in each case. Also, the Level of cytotoxicity in data set [5] and in [6] was 0.5 each time. In [10], the “toxicity to animals and humans” value is “completely harmless”. Moreover, the absorption and metabolization entry in data set [12] was “fast absorption and metabolization”. In addition, in [7], the “reduction (maximum effects)” value is on record as more than 4 logo.
